Literature values as cited in patent publication US11331358B2, “Pharmaceutical composition and method of manufacturing” (CURE PHARMACEUTICAL HOLDING CORP., priority 2014, dated 2022).
≈ marks a conversion by molar mass, not a printed value. Read-outs that look alike come from different tables or passages of the source.

Conditions: for Solubility in alcohols, lipids and organic solvents: solvents as named in the value; for Solubility in alcohols, lipids and organic solvents / Solubility in alkaline solutions: qualitative; for Solubility in alkaline solutions: alkaline solutions / alkalai
[1] = qualitative (insol. / sp. sol. / sol)

Compound: CC12CCC(CC1)C(C)(C)O2 [1,8-cineole]
- Solubility in alcohols, lipids and organic solvents: sol. alcohols, organic solvents (ethers, halocarbons)
- Solubility in water [1]: insol.

Compound: CCCCCc1cc(O)c2c(c1)OC(C)(CCC=C(C)C)C=C2 (stereo not shown) [cannabichromene (CBC), cannabichromene]
- Solubility in alcohols, lipids and organic solvents: sol. pentane
- Solubility in water [1]: insol.

Compound: CCCCCc1cc2c(c(O)c1C(=O)O)C=CC(C)(CCC=C(C)C)O2 (stereo not shown) [cannabichromenic acid (CBCA), cannabichromenic acid]
- Solubility in alkaline solutions: sol
- Solubility in alcohols, lipids and organic solvents: sol. alcohols
- Solubility in water [1]: sol

Compound: CCCCCc1cc(O)c2c(c1)OC1(C)CCC3C1C2C3(C)C (stereo not shown) [cannabicyclol (CBL), cannabicyclol]
- Solubility in alcohols, lipids and organic solvents: sol. pentane
- Solubility in water [1]: insol.

Compound: CCCCCc1cc2c(c(O)c1C(=O)O)C1C3C(CCC3(C)O2)C1(C)C (stereo not shown) [cannabicyclolic acid (CBLA), cannabicyclolic acid]
- Solubility in alkaline solutions: sol
- Solubility in alcohols, lipids and organic solvents: sol. alcohols
- Solubility in water [1]: sol

Compound: CCCCCc1cc(O)c(C/C=C(\C)CCC=C(C)C)c(O)c1 [cannabigerol (CBG), cannabigerol]
- Solubility in alcohols, lipids and organic solvents: sol. pentane
- Solubility in water [1]: insol.

Compound: CCCCCc1cc(O)c(C/C=C(\C)CCC=C(C)C)c(O)c1C(=O)O [cannabigerolic acid (CBGA), cannabigerolic acid]
- Solubility in alkaline solutions: sol
- Solubility in alcohols, lipids and organic solvents: sol. alcohols
- Solubility in water [1]: sol

Compound: CCCCCc1cc(O)c2c(c1)OC(C)(C)c1ccc(C)cc1-2 [cannabinol (CBN), cannabinol]
- Solubility in alcohols, lipids and organic solvents: sol. MeOH, EtOH, lipids, non-polar organic solvents
- Solubility in water [1]: insol.

Compound: CCCCCc1cc2c(c(O)c1C(=O)O)-c1cc(C)ccc1C(C)(C)O2 [cannabinolic acid (CBNA), cannabinolic acid]
- Solubility in alkaline solutions: sol
- Solubility in alcohols, lipids and organic solvents: sol. alcohols
- Solubility in water [1]: sol

Compound: COc1cc(-c2cc(=O)c3c(O)c(C/C=C(\C)CCC=C(C)C)c(O)cc3o2)ccc1O [cannaflavin A]
- Solubility in alkaline solutions: sol.
- Solubility in alcohols, lipids and organic solvents: sol. alcohols, ethers, halocarbons
- Solubility in water [1]: insol.

Compound: COc1cc(-c2cc(=O)c3c(O)c(CC=C(C)C)c(O)cc3o2)ccc1O [cannaflavin B]
- Solubility in alkaline solutions: sol.
- Solubility in alcohols, lipids and organic solvents: sol. alcohols, ethers, halocarbons
- Solubility in water [1]: insol.

Compound: Cc1ccc(C(C)C)cc1O [carvacrol]
- Solubility in alcohols, lipids and organic solvents: sol. alcohols, organic solvents (ethers, halocarbons)
- Solubility in water [1]: sp. sol.

Compound: C=C(C)C1CC=C(C)C(=O)C1 (stereo not shown) [carvone]
- Solubility in alcohols, lipids and organic solvents: sol. alcohols, organic solvents (ethers, halocarbons)
- Solubility in water [1]: insol.

Compound: C=C(C)C1CCC2(C)OC2C1 (stereo not shown) [limonene oxide]
- Solubility in alcohols, lipids and organic solvents: sol. alcohols, organic solvents (ethers, halocarbons)
- Solubility in water [1]: insol.

Compound: C=C(C)C1CC=C(C)CC1 (stereo not shown) [limonene]
- Solubility in alcohols, lipids and organic solvents: sol. alcohols, organic solvents (ethers, halocarbons), hydrocarbons
- Solubility in water [1]: insol.

Compound: Cc1ccc(C(C)C)cc1 [p-cymene]
- Solubility in alcohols, lipids and organic solvents: sol. alcohols, organic solvents (ethers, halocarbons), hydrocarbons
- Solubility in water [1]: insol.

Compound: C[C@@H]1CCC2(OC2(C)C)C(=O)C1 (stereo partly shown) [pulegone-1,2epoxide]
- Solubility in alcohols, lipids and organic solvents: sol. alcohols, organic solvents (ethers, halocarbons)
- Solubility in water [1]: insol.

Compound: CC(C)=C1CC[C@@H](C)CC1=O [pulegone]
- Solubility in alcohols, lipids and organic solvents: sol. alcohols, organic solvents (ethers, halocarbons)
- Solubility in water [1]: insol.

Compound: CC1=CCC(O)(C(C)C)CC1 (stereo not shown) [terpinen-4-ol]
- Solubility in alcohols, lipids and organic solvents: sol. alcohols, organic solvents (ethers, halocarbons)
- Solubility in water [1]: insol.

Compound: C=C(C)C1CC=C(C)CC1c1c(O)cc(CCCCC)cc1O (stereo not shown) [Δ(8)-tetrahydrocannabidiol (Δ(8)-CBD), Δ(8)-tetrahydrocannabidiol]
- Solubility in alcohols, lipids and organic solvents: sol. pentane
- Solubility in water [1]: insol.

Compound: C=C(C)C1CC=C(C)CC1c1c(O)cc(CCCCC)c(C(=O)O)c1O (stereo not shown) [Δ(8)-tetrahydrocannabidiolic acid]
- Solubility in alkaline solutions: sol
- Solubility in alcohols, lipids and organic solvents: sol. alcohols
- Solubility in water [1]: sol

Compound: CCCCCc1cc(O)c2c(c1)OC(C)(C)[C@@H]1CC=C(C)CC21 (stereo partly shown) [Δ(8)-tetrahydrocannabinol (Δ(8)-THC), Δ(8)-tetrahydrocannabinol]
- Solubility in alcohols, lipids and organic solvents: sol. MeOH, EtOH sol. lipids sol. non-polar organic solvents
- Solubility in water [1]: insol.

Compound: CCCCCc1cc2c(c(O)c1C(=O)O)C1CC(C)=CC[C@H]1C(C)(C)O2 (stereo partly shown) [Δ(8)-tetrahydrocannabinolic acid]
- Solubility in alkaline solutions: sol
- Solubility in alcohols, lipids and organic solvents: sol. alcohols
- Solubility in water [1]: sol

Compound: CCCc1cc(O)c2c(c1)OC(C)(C)[C@@H]1CCC(C)=CC21 (stereo partly shown) [Δ(9)- tetrahydrocannabivarin (Δ(9)-THV), Δ(9)-tetrahydrocannabivarin]
- Solubility in alkaline solutions: sol
- Solubility in alcohols, lipids and organic solvents: sol. alcohols
- Solubility in water [1]: sol

Compound: CCCCCc1cc(O)c2c(c1)OC(C)(C)[C@@H]1CCC(C)=CC21 (stereo partly shown) [Δ(9)-tetrahydrocannabinol (Δ(9)-THC), Δ(9)-tetrahydrocannabinol, reference compound]
- Solubility in alcohols, lipids and organic solvents: sol. MeOH, EtOH sol. lipids sol. non-polar organic solvents
- Solubility in water (23° C.): 2.8 µg/mL (≈ 8.9 µM)

Compound: CCCCCc1cc2c(c(O)c1C(=O)O)C1C=C(C)CC[C@H]1C(C)(C)O2 (stereo partly shown) [Δ(9)-tetrahydrocannabinolic acid]
- Solubility in alkaline solutions: sol
- Solubility in alcohols, lipids and organic solvents: sol. alcohols
- Solubility in water [1]: sol

Compound: C=C1CCC2OC2(C)CC[C@H]2[C@H]1CC2(C)C (stereo partly drawn) [β-caryophyllene epoxide]
- Solubility in alcohols, lipids and organic solvents: sol. alcohols, organic solvents (ethers, halocarbons)
- Solubility in water [1]: insol.

Compound: C=CC(=C)CCC=C(C)C [β-myrcene]
- Solubility in water [1]: insol.

Compound: fenchone
- Solubility in alcohols, lipids and organic solvents: sol. alcohols, organic solvents (ethers, halocarbons)
- Solubility in water [1]: insol.
